Data reported in the kinase profiling compilation of Christmann-Franck et al. (2016).

Legend:
Assay in all cases: radiometric filter-binding kinase assay, Kinase HotSpot
Conditions in all cases: compound 0.5 µM; ATP 10 µM
[1] = target: EPHB4 (human) (UniProt P54760)
[2] = target: AKT3 (human) (UniProt Q9Y243)
[3] = target: GRK7 (human) (UniProt Q8WTQ7)
[4] = target: TGFBR1 (human) (UniProt P36897)
[5] = target: TYRO3 (human) (UniProt Q06418)
[6] = target: DAPK2 (human) (UniProt Q9UIK4)
[7] = target: CAMK2A (human) (UniProt Q9UQM7)
[8] = target: MYLK2 (human) (UniProt Q9H1R3)
Chain of MYLK2 (human) (Q9H1R3 whole entry, looked up): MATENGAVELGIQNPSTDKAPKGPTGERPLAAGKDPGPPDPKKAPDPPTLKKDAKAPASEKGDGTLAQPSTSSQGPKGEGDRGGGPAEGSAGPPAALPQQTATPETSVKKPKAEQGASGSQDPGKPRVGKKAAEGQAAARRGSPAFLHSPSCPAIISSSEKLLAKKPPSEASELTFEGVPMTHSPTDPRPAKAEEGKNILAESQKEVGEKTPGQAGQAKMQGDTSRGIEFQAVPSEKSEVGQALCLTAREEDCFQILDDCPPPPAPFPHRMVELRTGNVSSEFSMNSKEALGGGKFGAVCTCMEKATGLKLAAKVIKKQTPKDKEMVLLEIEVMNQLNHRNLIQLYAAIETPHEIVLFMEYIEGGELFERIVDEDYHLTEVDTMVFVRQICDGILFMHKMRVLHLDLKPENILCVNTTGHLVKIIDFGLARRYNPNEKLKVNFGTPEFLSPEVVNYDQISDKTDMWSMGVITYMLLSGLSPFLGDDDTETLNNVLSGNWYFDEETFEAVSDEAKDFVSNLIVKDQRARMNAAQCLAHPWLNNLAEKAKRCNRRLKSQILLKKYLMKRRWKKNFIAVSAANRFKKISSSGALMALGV

[9] = target: MAPK1 (human) (UniProt P28482)
[10] = target: STK33 (human) (UniProt Q9BYT3)
[11] = target: YES1 (human) (UniProt P07947)
[12] = target: TSSK2 (human) (UniProt Q96PF2)
[13] = target: TAOK3 (human) (UniProt Q9H2K8)
[14] = target: PRKCH (human) (UniProt P24723)
[15] = target: JAK1 JH1 catalytic (human) (UniProt P23458)
Chain of JAK1 JH1 catalytic (human) (P23458 whole entry, looked up): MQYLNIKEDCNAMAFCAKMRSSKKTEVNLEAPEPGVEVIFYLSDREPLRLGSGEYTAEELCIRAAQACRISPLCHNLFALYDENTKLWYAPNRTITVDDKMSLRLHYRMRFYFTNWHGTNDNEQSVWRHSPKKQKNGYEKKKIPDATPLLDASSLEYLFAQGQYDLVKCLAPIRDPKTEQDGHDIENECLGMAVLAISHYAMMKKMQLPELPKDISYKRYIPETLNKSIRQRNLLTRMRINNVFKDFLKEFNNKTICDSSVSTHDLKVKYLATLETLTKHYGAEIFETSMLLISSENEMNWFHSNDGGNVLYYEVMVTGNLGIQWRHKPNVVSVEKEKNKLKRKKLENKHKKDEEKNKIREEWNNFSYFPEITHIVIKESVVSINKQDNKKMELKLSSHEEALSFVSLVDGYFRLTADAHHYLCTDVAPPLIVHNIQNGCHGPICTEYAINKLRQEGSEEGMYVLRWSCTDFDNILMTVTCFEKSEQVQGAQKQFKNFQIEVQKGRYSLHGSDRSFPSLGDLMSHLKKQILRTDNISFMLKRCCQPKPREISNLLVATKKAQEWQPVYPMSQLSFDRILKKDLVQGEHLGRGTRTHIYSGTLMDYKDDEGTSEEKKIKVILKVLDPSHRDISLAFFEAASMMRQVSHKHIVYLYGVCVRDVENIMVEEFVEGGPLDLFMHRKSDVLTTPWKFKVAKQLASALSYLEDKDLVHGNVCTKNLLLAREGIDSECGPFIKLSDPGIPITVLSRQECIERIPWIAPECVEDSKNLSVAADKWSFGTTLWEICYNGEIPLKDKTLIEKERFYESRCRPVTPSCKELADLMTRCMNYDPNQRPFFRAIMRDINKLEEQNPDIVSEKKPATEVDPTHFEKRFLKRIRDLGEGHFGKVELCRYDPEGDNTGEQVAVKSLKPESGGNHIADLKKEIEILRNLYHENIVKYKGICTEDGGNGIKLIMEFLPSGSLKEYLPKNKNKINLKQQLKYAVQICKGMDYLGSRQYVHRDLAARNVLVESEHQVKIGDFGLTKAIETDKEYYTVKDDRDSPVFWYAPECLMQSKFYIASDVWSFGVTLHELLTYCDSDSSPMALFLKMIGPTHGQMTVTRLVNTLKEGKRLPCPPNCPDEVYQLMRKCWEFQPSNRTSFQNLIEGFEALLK

[16] = target: CDK3 CCNE1 (human) (UniProt Q00526+P24864)
[17] = target: PRKCI (human) (UniProt P41743)
[18] = target: VRK1 (human) (UniProt Q99986)
[19] = target: TYK2 JH1 catalytic (human) (UniProt P29597)
[20] = target: CHEK1 (human) (UniProt O14757)
[21] = target: PIM2 (human) (UniProt Q9P1W9)
[22] = target: CAMK1G (human) (UniProt Q96NX5)
[23] = target: HIPK4 (human) (UniProt Q8NE63)
[24] = target: RIPK2 (human) (UniProt O43353)
[25] = target: GRK4 (human) (UniProt P32298)
[26] = target: ROCK1 (human) (UniProt Q13464)
Chain of ROCK1 (human) (Q13464 whole entry, looked up): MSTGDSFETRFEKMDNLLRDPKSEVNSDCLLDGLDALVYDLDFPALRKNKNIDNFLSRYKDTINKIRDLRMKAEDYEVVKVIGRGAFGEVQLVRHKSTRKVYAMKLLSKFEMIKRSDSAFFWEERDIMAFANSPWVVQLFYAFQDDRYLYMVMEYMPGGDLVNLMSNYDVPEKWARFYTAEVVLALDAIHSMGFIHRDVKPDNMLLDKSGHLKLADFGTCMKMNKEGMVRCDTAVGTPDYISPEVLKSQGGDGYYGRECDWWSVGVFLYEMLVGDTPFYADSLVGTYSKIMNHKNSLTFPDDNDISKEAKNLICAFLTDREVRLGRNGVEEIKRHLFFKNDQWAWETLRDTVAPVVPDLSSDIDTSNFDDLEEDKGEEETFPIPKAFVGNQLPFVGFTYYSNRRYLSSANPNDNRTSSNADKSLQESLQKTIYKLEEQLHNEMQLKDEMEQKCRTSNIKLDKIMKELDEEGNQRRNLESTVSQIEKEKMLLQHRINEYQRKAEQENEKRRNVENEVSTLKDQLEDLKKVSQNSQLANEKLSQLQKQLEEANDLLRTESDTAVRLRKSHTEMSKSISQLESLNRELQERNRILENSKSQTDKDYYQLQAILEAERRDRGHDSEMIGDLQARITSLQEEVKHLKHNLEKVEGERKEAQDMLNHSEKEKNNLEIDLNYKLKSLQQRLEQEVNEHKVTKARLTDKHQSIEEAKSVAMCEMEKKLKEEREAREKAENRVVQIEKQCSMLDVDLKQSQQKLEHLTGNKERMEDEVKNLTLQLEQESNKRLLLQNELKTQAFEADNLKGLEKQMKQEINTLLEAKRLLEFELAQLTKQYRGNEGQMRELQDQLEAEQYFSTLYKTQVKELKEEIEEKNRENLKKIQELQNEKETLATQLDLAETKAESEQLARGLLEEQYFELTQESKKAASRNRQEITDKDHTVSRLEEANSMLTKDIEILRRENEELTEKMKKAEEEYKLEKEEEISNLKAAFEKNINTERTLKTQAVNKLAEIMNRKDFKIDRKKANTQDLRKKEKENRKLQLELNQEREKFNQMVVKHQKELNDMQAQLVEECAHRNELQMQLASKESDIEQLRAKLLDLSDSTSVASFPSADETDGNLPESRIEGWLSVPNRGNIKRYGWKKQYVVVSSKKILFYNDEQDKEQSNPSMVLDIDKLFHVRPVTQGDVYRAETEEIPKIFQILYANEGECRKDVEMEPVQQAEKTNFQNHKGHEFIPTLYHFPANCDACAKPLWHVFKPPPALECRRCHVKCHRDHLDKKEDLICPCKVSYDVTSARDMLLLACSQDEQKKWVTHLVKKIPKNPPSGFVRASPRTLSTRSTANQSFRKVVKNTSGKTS

[27] = target: DAPK3 (human) (UniProt O43293)
[28] = target: STK39 (human) (UniProt Q9UEW8)
[29] = target: TSSK1B (human) (UniProt Q9BXA7)
[30] = target: CDK6 CCND3 (human) (UniProt P30281+Q00534)
[31] = target: IRAK1 (human) (UniProt P51617)
[32] = target: RPS6KA5 KD2 (human) (UniProt O75582)
Chain of RPS6KA5 KD2 (human) (O75582 whole entry, looked up): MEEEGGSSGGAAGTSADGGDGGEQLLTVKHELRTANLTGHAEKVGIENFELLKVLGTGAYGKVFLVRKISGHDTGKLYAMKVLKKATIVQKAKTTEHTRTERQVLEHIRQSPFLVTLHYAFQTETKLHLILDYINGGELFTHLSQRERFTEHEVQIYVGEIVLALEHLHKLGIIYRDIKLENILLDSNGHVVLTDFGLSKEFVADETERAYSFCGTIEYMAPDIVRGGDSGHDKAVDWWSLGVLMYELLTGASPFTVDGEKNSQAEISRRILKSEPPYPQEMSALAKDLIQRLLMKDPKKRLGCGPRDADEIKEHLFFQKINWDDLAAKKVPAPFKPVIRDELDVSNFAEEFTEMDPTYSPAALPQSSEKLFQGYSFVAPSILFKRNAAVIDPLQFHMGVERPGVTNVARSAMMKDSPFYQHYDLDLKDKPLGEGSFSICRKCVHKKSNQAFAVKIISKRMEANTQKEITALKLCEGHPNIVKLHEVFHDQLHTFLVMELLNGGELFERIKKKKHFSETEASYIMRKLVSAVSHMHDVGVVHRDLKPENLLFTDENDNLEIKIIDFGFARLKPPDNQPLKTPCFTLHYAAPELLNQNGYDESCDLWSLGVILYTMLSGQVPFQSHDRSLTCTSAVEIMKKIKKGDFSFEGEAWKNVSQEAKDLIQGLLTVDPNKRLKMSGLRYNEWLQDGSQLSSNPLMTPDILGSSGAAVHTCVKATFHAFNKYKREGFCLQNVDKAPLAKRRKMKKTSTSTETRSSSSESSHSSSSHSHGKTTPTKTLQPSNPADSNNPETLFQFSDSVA

[33] = target: STK11 (human) (UniProt Q15831)
[34] = target: CAMK2B (human) (UniProt Q13554)
[35] = target: CAMK2D (human) (UniProt Q13557)
[36] = target: PRKD1 (human) (UniProt Q15139)
[37] = target: CDK2 CCNA2 (human) (UniProt P24941+P20248)
[38] = target: CLK1 (human) (UniProt P49759)
[39] = target: PBK (human) (UniProt Q96KB5)
[40] = target: CDK4 CCND1 (human) (UniProt P24385+P11802)
Chain of CDK4 CCND1 (human) (P11802 whole entry, looked up): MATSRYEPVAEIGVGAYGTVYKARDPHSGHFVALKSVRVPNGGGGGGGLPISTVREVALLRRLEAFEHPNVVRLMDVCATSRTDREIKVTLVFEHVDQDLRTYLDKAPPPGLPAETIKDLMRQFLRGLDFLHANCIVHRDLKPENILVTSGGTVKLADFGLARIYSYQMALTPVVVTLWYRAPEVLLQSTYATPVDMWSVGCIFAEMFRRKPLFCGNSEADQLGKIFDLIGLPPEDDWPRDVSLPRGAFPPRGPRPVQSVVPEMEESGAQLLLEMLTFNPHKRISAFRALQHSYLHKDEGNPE
Chain of CDK4 CCND1 (human) (P24385 whole entry, looked up): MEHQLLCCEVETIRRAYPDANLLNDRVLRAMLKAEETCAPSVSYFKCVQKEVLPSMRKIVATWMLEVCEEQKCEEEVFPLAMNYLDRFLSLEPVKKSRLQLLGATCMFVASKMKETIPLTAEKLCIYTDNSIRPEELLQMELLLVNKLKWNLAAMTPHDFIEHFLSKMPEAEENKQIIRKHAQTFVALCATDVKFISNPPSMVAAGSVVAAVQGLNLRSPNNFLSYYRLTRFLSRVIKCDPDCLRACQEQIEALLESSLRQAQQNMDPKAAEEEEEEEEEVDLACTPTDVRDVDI

[41] = target: JAK3 JH1 JH2 (human) (UniProt P52333)

Chain of TGFBR1 (human) (P36897 whole entry, looked up): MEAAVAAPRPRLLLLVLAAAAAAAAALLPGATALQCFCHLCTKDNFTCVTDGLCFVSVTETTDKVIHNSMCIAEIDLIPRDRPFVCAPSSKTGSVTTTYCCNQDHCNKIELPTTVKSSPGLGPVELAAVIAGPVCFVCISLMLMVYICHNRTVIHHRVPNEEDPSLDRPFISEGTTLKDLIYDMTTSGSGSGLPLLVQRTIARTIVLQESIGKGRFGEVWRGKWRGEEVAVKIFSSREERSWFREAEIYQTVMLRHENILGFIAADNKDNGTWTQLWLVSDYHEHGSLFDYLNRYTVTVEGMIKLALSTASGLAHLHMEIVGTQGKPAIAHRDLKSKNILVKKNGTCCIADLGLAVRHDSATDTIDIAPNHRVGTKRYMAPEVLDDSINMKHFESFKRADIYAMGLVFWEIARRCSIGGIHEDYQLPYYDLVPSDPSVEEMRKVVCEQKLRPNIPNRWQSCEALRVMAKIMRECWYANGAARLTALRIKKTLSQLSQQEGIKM

O=c1cc(N2CCOCC2)oc2c(-c3ccccc3)cccc12
residual activity [1]: 99.5%
residual activity [2]: 102%
residual activity [3]: 112%
residual activity [4]: 97.5%
residual activity [5]: 107%
residual activity [6]: 126%
residual activity [7]: 91.1%
residual activity [8]: 102%
residual activity [9]: 70.3%
residual activity [10]: 92.1%
residual activity [11]: 101%
residual activity [12]: 91.4%
residual activity [13]: 88.2%
residual activity [14]: 99%
residual activity [15]: 108%
residual activity [16]: 89.6%
residual activity [17]: 99.5%
residual activity [18]: 85.4%
residual activity [19]: 103%
residual activity [20]: 104%
residual activity [21]: 106%
residual activity [22]: 93.8%
residual activity [23]: 102%
residual activity [24]: 89.9%
residual activity [25]: 96.5%
residual activity [26]: 104%
residual activity [27]: 96.5%
residual activity [28]: 78.4%
residual activity [29]: 101%
residual activity [30]: 101%
residual activity [31]: 104%
residual activity [32]: 99.5%
residual activity [33]: 101%
residual activity [34]: 110%
residual activity [35]: 100%
residual activity [36]: 98.3%
residual activity [37]: 106%
residual activity [38]: 112%
residual activity [39]: 110%
residual activity [40]: 111%
residual activity [41]: 103%

COc1cc2c(N3CCN(C(=O)Nc4ccc(OC(C)C)cc4)CC3)ncnc2cc1OCCCN1CCCCC1
residual activity [1]: 95%
residual activity [2]: 106%
residual activity [3]: 104%
residual activity [4]: 102%
residual activity [5]: 101%
residual activity [6]: 104%
residual activity [7]: 101%
residual activity [8]: 101%
residual activity [9]: 87%
residual activity [10]: 91.1%
residual activity [11]: 86.6%
residual activity [12]: 96.6%
residual activity [13]: 96.8%
residual activity [14]: 108%
residual activity [15]: 102%
residual activity [16]: 90.6%
residual activity [17]: 96.2%
residual activity [18]: 100%
residual activity [19]: 97.9%
residual activity [20]: 108%
residual activity [21]: 113%
residual activity [22]: 94.6%
residual activity [23]: 99.5%
residual activity [24]: 110%
residual activity [25]: 106%
residual activity [26]: 102%
residual activity [27]: 101%
residual activity [28]: 93.2%
residual activity [29]: 96.8%
residual activity [30]: 92.7%
residual activity [31]: 96.1%
residual activity [32]: 109%
residual activity [33]: 104%
residual activity [34]: 99.9%
residual activity [35]: 106%
residual activity [36]: 96.1%
residual activity [37]: 93.3%
residual activity [38]: 72.4%
residual activity [39]: 98%
residual activity [40]: 92.5%
residual activity [41]: 99.8%
